Test results as given in the supplement of paper PMC10307832.

What was measured:
Experiment in all cases: relative viability (nuclei count vs DMSO), 5 days (fraction); higher = more cells survive
[1] = compound: CN(C)CC1=CC(=CC=C1)N=C(C2=CC=CC=C2)C3=C(NC4=C3C=CC(=C4)C(=O)N(C)C)O + CC1(C)CCC(c2ccc(Cl)cc2)=C(CN2CCN(c3ccc(C(=O)NS(=O)(=O)c4ccc(N[C@H](CCN5CCOCC5)CSc5ccccc5)c(S(=O)(=O)C(F)(F)F)c4)cc3)CC2)C1 [Navitoclax] (partner 0.5 µM)
How it was run: (§1)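 Dosing by pin tool came one day after lung cancer cell lines were seeded in 1536-well plates, using either one drug or a fixed anchor-drug dose plus five library-drug doses (not always all listed) in √10 steps. After 5 days, nuclei were counted on 4× images. Relative viability is treated-well nuclei count divided by vehicle-well nuclei count, and values are medians of duplicate plates.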

[2] = compound: CN(C)CC1=CC(=CC=C1)N=C(C2=CC=CC=C2)C3=C(NC4=C3C=CC(=C4)C(=O)N(C)C)O + O=C(CCCCCCC(=O)Nc1ccccc1)NO [Vorinostat] (partner 1 µM)
How it was run: as §1

[3] = compound: CN(C)CC1=CC(=CC=C1)N=C(C2=CC=CC=C2)C3=C(NC4=C3C=CC(=C4)C(=O)N(C)C)O + Cc1nc(Nc2ncc(C(=O)Nc3c(C)cccc3Cl)s2)cc(N2CCN(CCO)CC2)n1 [Dasatinib] (partner 0.075 µM)
How it was run: as §1

[4] = compound: CN(C)CC1=CC(=CC=C1)N=C(C2=CC=CC=C2)C3=C(NC4=C3C=CC(=C4)C(=O)N(C)C)O + C[C@@H](Oc1cc(-c2cnn(C3CCNCC3)c2)cnc1N)c1c(Cl)ccc(F)c1Cl [Crizotinib] (partner 1 µM)
How it was run: as §1

Cell Line | relative viability ([1]; first compound 0.08 µM) | relative viability ([1]; first compound 0.253 µM) | relative viability ([1]; first compound 0.8 µM) | relative viability ([1]; first compound 8 µM) | relative viability ([2]; first compound 0.08 µM) | relative viability ([2]; first compound 0.253 µM) | relative viability ([2]; first compound 0.8 µM) | relative viability ([2]; first compound 2.53 µM) | relative viability ([2]; first compound 8 µM) | relative viability ([3]; first compound 0.08 µM) | relative viability ([3]; first compound 0.253 µM) | relative viability ([3]; first compound 0.8 µM) | relative viability ([3]; first compound 2.53 µM) | relative viability ([3]; first compound 8 µM) | relative viability ([4]; first compound 0.08 µM) | relative viability ([4]; first compound 0.253 µM) | relative viability ([4]; first compound 0.8 µM) | relative viability ([4]; first compound 8 µM) | relative viability ([1]; first compound 2.53 µM) | relative viability ([4]; first compound 2.53 µM)
ChaGo-K-1 | 1.16 | 1.17 | 1.27 | 1 | 0.753 | 0.737 | 0.795 | 0.738 | 0.777 | 0.579 | 0.61 | 0.601 | 0.567 | 0.582 | 1.18 | 1.1 | 1.1 | 1.11 |  | 
LK-2 | 1.06 | 0.784 | 0.897 | 0.761 | 0.352 | 0.28 | 0.272 | 0.331 | 0.262 | 0.296 | 0.389 | 0.25 | 0.328 | 0.275 | 0.249 | 0.21 | 0.264 | 0.216 | 0.789 | 0.256
NCI-H2023 | 1.02 | 0.97 | 0.952 | 0.984 | 0.594 | 0.685 | 0.765 | 0.368 | 0.589 | 0.538 | 0.549 | 0.576 | 0.445 | 0.466 | 0.797 | 0.698 | 0.67 | 0.498 | 0.872 | 0.563
PC-3 [JPC-3] | 0.787 | 0.703 | 0.643 | 0.843 | 0.853 | 0.834 | 0.682 | 0.883 | 1.03 | 1.01 | 1.03 | 0.911 | 0.914 | 0.992 | 0.968 | 0.983 | 0.824 | 1.07 | 0.84 | 0.985
NCI-H1650 | 1.23 | 1.16 | 1.3 | 1.08 | 0.619 | 0.698 | 0.444 | 0.546 | 0.652 | 0.286 | 0.383 | 0.351 | 0.376 | 0.335 | 1.14 | 0.956 | 1.03 | 0.749 | 1.15 | 0.977
NCI-H2170 | 0.64 | 0.583 | 0.307 | 0.36 | 0.93 | 0.884 | 0.693 | 0.829 | 0.643 | 0.554 | 0.487 | 0.292 | 0.575 | 0.519 | 1.2 | 1.15 | 0.934 | 0.922 | 0.565 | 1.11
LOU-NH91 | 0.756 | 0.687 | 0.548 | 0.638 | 0.892 | 0.97 | 0.754 | 0.87 | 0.872 | 0.572 | 0.552 | 0.485 | 0.539 | 0.503 | 0.777 | 0.723 | 0.689 | 0.712 | 0.653 | 0.746
NCI-H520 | 1.04 | 1.23 | 1.07 | 0.953 | 0.715 | 0.644 | 0.831 | 0.621 | 0.536 | 0.189 | 0.197 | 0.183 | 0.162 | 0.165 | 0.713 | 0.722 | 0.833 | 0.71 | 1.05 | 0.705
UMC-11 | 0.357 | 0.269 | 0.264 | 0.32 | 0.318 | 0.399 | 0.41 | 0.364 | 0.34 | 0.507 | 0.414 | 0.45 | 0.445 | 0.407 | 0.62 | 0.711 | 0.662 | 0.588 | 0.328 | 0.468
BEN | 0.0778 | 0.06 | 0.0663 | 0.0691 | 0.577 | 0.609 | 0.578 | 0.603 | 0.575 | 0.307 | 0.284 | 0.396 | 0.487 | 0.336 | 0.791 | 0.739 | 0.866 | 0.641 | 0.0535 | 0.876
LCLC-97TM1 | 0.325 | 0.276 | 0.362 | 0.734 | 0.683 | 0.728 | 0.728 | 0.623 | 0.551 | 0.816 | 0.922 | 0.785 | 0.786 | 0.821 | 0.37 | 0.517 | 0.453 | 0.445 | 0.395 | 0.331
NCI-H1666 | 0.983 | 1.14 | 1.02 | 1.1 | 1.06 | 1.09 | 0.956 | 1.01 | 1.34 | 0.826 | 0.836 | 0.907 | 0.747 | 0.843 | 1.24 | 1.04 | 0.933 | 1.13 | 1.07 | 1.14
SW 1573 | 1.01 | 0.822 | 0.844 | 1.01 | 0.616 | 1.08 | 0.958 | 0.744 | 0.55 | 0.538 | 0.794 | 0.589 | 0.436 | 0.383 | 0.842 | 0.854 | 0.672 | 0.794 | 0.906 | 0.866
NCI-H1993 | 0.935 | 1.02 | 0.885 | 1.09 | 0.904 | 0.79 |  | 1.14 | 0.994 | 0.505 | 0.602 | 0.512 | 0.607 | 0.729 | 0.761 | 0.845 | 0.628 | 0.876 | 0.933 | 0.89
NCI-H2085 | 1.24 | 1.16 | 1.06 | 1.18 | 0.785 | 0.777 | 0.785 | 0.819 | 0.773 | 0.226 | 0.285 | 0.257 | 0.252 | 0.278 | 0.849 | 0.903 | 0.702 | 1.03 | 1.16 | 0.947
NCI-H23 | 0.9 | 0.911 | 0.884 | 0.732 |  | 0.655 | 0.688 | 0.649 | 0.549 | 0.739 | 0.933 | 0.916 | 0.823 | 0.849 | 0.376 | 0.538 | 0.503 | 0.417 | 0.99 | 0.483
